Measured values published in patent US20110038959A1, “PLANT-ORIGIN DRUG FOR PREVENTING OR IMPROVING HYPERURICEMIA” (priority 2009, published 2011).

What was measured:
[1] = target: T1, buttermilk-derived xanthine oxidase (Bos taurus, UniProt P80457); test: Xanthine oxidase inhibitory activity assay (xanthine substrate, uric acid detected by absorbance at 295 nm); assay type: biochemical
T1 construct: an enzyme solution comprising buttermilk-derived xanthine oxidase dissolved at 0.2 units/ml in phosphate buffer; from tissue; host or cells: buttermilk
T1 sequence (P80457 whole entry): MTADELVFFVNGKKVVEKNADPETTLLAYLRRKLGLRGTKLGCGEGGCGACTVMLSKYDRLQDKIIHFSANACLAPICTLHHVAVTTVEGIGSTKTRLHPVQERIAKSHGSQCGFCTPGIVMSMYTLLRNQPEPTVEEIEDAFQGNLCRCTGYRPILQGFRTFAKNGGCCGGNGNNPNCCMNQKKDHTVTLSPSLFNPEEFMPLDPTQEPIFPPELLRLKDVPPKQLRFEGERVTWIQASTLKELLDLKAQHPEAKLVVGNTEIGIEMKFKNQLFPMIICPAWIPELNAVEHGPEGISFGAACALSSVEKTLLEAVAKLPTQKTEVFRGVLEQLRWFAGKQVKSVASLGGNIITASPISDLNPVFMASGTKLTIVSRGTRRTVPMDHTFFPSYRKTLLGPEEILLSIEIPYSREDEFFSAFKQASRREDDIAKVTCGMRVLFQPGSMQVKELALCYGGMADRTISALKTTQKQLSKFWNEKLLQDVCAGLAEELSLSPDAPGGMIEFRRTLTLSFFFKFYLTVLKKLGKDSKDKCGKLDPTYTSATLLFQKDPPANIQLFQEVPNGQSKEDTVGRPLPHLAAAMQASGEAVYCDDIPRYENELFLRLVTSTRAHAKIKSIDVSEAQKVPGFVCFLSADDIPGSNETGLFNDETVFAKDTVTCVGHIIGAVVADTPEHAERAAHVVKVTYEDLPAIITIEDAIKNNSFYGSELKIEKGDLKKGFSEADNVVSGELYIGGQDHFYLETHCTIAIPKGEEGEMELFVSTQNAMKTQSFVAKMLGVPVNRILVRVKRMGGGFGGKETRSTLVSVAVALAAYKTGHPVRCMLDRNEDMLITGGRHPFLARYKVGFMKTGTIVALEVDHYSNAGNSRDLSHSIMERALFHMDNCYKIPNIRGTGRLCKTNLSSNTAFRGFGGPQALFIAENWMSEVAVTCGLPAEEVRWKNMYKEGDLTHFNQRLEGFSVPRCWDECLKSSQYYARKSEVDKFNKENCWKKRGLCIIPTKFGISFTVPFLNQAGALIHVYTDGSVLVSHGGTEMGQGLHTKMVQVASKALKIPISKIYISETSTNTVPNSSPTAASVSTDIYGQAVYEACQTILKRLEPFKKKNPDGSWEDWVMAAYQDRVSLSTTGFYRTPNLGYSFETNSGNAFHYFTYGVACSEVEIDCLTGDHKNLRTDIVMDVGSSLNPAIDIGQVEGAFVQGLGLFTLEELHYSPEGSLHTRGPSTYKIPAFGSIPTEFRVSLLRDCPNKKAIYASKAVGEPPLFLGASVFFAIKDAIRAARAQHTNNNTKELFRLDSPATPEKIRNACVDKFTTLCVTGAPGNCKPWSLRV

[2] = test system: potassium oxonate-induced hyperuricemic rat models; test: Uric acid level in blood of potassium oxonate-induced hyperuricemic rat models; assay type: in vivo, SD rats
Procedure: 5-week-old male SD rats were purchased from Japan SLC, Inc. and were acclimatized for 1 week. The rats were divided into groups based on body weight (each group consisting of 6 rats), and 5 groups were designated in total; i.e., a control group, a group to which the Artemisia extract is administered, a group to which the chrysanthemum extract is administered, a group to which the guava extract is administered, and a group to which the oregano extract is administered. At the outset, potassium oxonate (Sigma-Aldrich) was administered intraperitoneally to rats at a dose of 250 mg/kg of body weight to prepare potassium oxonate-induced hyperuricemic rat models. […] Blood serum was fractionated from the sampled blood via centrifugation and the uric acid level in the blood was measured. […] Blood serum was fractionated from the sampled blood via centrifugation and the uric acid level in the blood was measured. […] Blood serum was fractionated from the sampled blood via centrifugation and the uric acid level in the blood was measured.

O=C(/C=C/c1ccc(O)c(O)c1)c1ccc(O)c(O)c1O [Okanin, okanin]
xanthine oxidase activity compared with allopurinol (in words) ([1]; comparison of IC50 values, Table 2): more potent xanthine oxidase activity than allopurinol
IC50 ([1]; concentration inhibiting 50% of xanthine oxidase activity, solvent control = 100%): 1500 nM
Uric acid level in blood ([2]; 50 mg okanin per kg body weight 1 hour after potassium oxonate (250 mg/kg i.p.), blood sampled 2 hours after potassium oxonate, control group 4.92 ± 0.53): 4.10 ± 0.56 mg/dL
uric acid level after administration (in words) ([2]; okanin 50 mg/kg, blood 2 hours after potassium oxonate, versus control group, Table 5): significantly lowered uric acid level
